Where a SMILES comes first, the peptide text is derived from it. Where no end group is shown, it is not given here.
Tests used:
GPIb [1] = biological target: T1, GPIb (Homo sapiens, UniProt P07359); experiment: Inhibition of ristocetin-induced binding of 125I-vWF to formalin-fixed platelets by peptides; settings: formalin-fixed platelets 1 x 10¹¹/liter, 125I-vWF 5 micrograms/ml, ristocetin 1.0 mg/ml, 30 minutes room temperature; read-out: IC₅₀ (concentration of peptide which inhibited binding by 50%)
T1 construct: endogenous in cells; host or cells: fresh or formalin-fixed platelets
Description: To test the inhibition of ristocetin-induced binding of vWF to platelets by peptides, formalin-fixed platelets were used at a final concentration of 1 x 10¹¹/liter. Peptides to be tested were then added at various concentrations. One third final volume of vWF deficient plasma was then added followed by ¹²⁵I-vWF a final concentration of 5 micrograms/ml. Ristocetin was then added at a concentration of 1.0 mg/ml. After incubation for 30 minutes at room temperature bound and free ligand were separated by centrifuging 50 microliters of the mixture through 300 microliters of 20% sucrose at 12,000 x g for 4 minutes. The platelet pellet was then separated from the rest of the mixture to determine platelet-bound radioactivity. Nonspecific binding was defined as the residual binding of ¹²⁵I-vWF in the presence of a 50-fold excess of unlabeled vWF but in the absence of any peptides.
(§1) Percent inhibition with a given peptide was calculated by dividing the specific cpm in the absence of peptide. The IC₅₀'s (concentration of peptide which inhibited binding by 50%) for the peptides tested were as follows: […]

GPIb [2] = biological target: T1, GPIb; experiment: Inhibition of 125I-asialo-vWF binding to fresh platelets by peptides
Description: To test the inhibitions of asialo-vWF binding to platelets, fresh platelets were used. These were prepared by drawing blood into 11 millimolar trisodium citrate and 2 millimolar EDTA. Platelet-rich plasma was then prepared by differential centrifugation. The platelet count was then adjusted to 1 x 10¹¹/liter. Peptides were then added to various concentrations and ¹²⁵I-asialo-vWF was then added at a final concentration of 5 micrograms/ml. After incubation for 30 minutes at room temperature bound and free ligand were separated by centrifuging 50 microliters of the mixture through 300 microliters of 20% sucrose at 12,000 x g for 4 minutes. The platelet pellet was then separated from the rest of the mixture to determine platelet-bound radioactivity. Non-specific binding was defined as the residual binding of ¹²⁵I-asialo-vWF in the presence of a 50-fold excess of unlabeled vWF but in the absence of any peptides.
as §1, with “dividing the specific cpm obtained when various concentrations of peptide were added by” for “dividing”

[3] = fresh platelets 1 x 10¹¹/liter, 125I-asialo-vWF 5 micrograms/ml, 30 minutes room temperature, read-out: IC₅₀ (concentration of peptide which inhibited binding by 50%)

T1 sequence (P07359 17-652): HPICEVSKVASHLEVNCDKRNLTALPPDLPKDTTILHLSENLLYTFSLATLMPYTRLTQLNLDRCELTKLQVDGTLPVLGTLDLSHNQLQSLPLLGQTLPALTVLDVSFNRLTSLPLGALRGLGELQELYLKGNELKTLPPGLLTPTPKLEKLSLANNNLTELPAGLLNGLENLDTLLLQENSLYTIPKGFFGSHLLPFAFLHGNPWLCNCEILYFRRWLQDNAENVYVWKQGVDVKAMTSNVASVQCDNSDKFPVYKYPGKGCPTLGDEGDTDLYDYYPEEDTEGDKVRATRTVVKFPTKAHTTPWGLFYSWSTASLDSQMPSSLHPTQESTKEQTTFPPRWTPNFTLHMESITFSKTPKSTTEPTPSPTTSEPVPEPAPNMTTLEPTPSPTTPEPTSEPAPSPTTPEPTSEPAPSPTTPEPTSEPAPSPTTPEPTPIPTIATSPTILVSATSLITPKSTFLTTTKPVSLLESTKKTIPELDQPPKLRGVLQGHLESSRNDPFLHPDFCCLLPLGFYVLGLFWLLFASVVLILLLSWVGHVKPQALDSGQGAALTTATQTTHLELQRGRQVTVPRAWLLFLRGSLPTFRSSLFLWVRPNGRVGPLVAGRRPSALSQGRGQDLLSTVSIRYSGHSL
T1 sequence (P13224 26-206 partner): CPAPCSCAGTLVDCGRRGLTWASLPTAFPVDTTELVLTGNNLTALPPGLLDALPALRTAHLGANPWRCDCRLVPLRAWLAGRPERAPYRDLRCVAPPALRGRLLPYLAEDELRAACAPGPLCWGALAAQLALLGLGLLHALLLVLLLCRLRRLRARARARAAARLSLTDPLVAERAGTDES
T1 sequence (P14770 17-177 partner): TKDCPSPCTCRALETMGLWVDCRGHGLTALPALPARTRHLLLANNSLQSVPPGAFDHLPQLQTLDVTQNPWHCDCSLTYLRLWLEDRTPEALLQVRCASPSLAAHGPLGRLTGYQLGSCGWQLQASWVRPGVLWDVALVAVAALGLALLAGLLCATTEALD

Compound: N=C(N)NCCC[C@H](NC(=O)[C@H](CCCCN)NC(=O)[C@H](CCCNC(=N)N)NC(=O)[C@@H](N)CCCCN)C(=O)O [(KR)₂] (H-KRKR-OH)
- IC50 (GPIb [1]): 200 µM

Compound: KRKRKR [(KR)₃]
- IC50 (GPIb [2]; [3]): 23 µM
- IC50 (GPIb [1]): 120 µM

Compound: KRKRKRKRGDV [(KR)₄GDV]
- IC50 (GPIb [2]; [3]): 15 µM
- IC50 (GPIb [1]): 16 µM

Compound: RRRRRRRRGDV [(R)₈GDV]
- IC50 (GPIb [2]): 3.5 µM
- IC50 (GPIb [1]): 6 µM

Compound: YRGDV [YRGDV, reference compound]
- IC50 (GPIb [1]): > 600 µM
